Numbered stars: 1 amine (or outer) side, 2 acyl side, 3 side chain; on linkers, the order of the positions; unused ones are H or OH. Bridge positions count the residues as written; N and C are the ends. Square brackets hold non-standard residues; d marks the D form. Peptide text beside a SMILES is read from it. Gly(N-CH2CH2-imidazol-4-yl) = O=C(O)CNCCc1c[nH]cn1; Bip = N[C@@H](Cc1ccc(-c2ccccc2)cc1)C(=O)O; Tpi = O=C(O)[C@@H]1Cc2c([nH]c3ccccc23)CN1; TBMB = c1c(C[*:1])cc(C[*:3])cc1C[*:2]; Dpg = CCCC(N)(CCC)C(=O)O; Aze = O=C(O)[C@@H]1CCN1; βAla = NCCC(=O)O
Target: T1, human plasma Kallikrein (Homo sapiens, UniProt P03952)
T1 construct: purchased Stratech, UK
Test: Phage selections against human plasma Kallikrein (abundance in selection output)
Format: binding
Settings: Table 17; relative abundance in the total selection outputs
Method: Glycerol stocks of phage libraries were diluted to OD600=0.1 in 500 ml 2YT/chloramphenicol (30 μg/ml) cultures and phage were produced at 30° C. over night (15-16 hrs). Phage were purified and chemically modified as described in Heinis, et al., Nat Chem Biol 2009, 5 (7), 502-7 Biotinylated hPK (3 μg) (IHPKA, from human plasma, Innovative Research, Novi, Mich., USA) was incubated with 50 μl pre-washed magnetic streptavidin beads (Dynal, M-280 from Invitrogen, Paisley, UK) for 10 minutes at RT. Beads were washed 3 times prior to blocking with 0.5 ml washing buffer (10 mM Tris-Cl, pH 7.4, 150 mM NaCl, 10 mM MgCl2, 1 mM CaCl2) containing 1% BSA and 0.1% Tween 20 for 30 minutes at RT with rotation. […] Blocked beads were then mixed with the blocked chemically modified phage and incubated for 30 minutes on a rotating wheel at
RT. Beads were washed 8 times with washing buffer containing 0.1% Tween 20 and twice with washing buffer before incubation with 100 μl of 50 mM glycine, pH 2.2 for 5 minutes. Eluted phage were transferred to 50 μl of 1 M Tris-Cl, pH 8 for neutralization, incubated with 30 ml TG1 cells at OD600=0.4 for 90 minutes at 37° C. and the cells were plated on large 2YT/chloramphenicol plates. One or two additional rounds of panning were performed using the same procedures. In the second round of selection, neutravidin-coated magnetic beads were used to prevent the enrichment of streptavidin-specific peptides. The neutravidin beads were prepared by reacting 0.8 mg neutravidin (Pierce, Rockford, Ill., USA) with 0.5 ml tosyl-activated magnetic beads (Dynal, M-280 from Invitrogen, Paisley, UK) according to the supplier's instructions.
The WPAR (SEQ ID No. 19) motif identified from Example 1 was analysed in the context of the 06-34-03 peptide, in order to identify alternatives or improvements to the WPAR motif. A library was constructed where positions 1, 6, 7, 8, 9 &10 of 06-34-03 were fixed and positions 2, 3, 4 & 5 were randomised (see ‘Randomisation of peptide domains—Library construction’ in Methods above). Selections against human plasma Kallikrein were performed at a variety of stringencies (see Phage selections' in Methods above). All output sequences were identified and analysed for target binding (see ‘Randomisation of peptide domains—Assay of binding of individual clones’ in Methods above). Table 17 lists each unique sequence, its relative abundance in the selection output (frequency), and a rank number according to target binding strength.

T1 sequence (P03952 20-638): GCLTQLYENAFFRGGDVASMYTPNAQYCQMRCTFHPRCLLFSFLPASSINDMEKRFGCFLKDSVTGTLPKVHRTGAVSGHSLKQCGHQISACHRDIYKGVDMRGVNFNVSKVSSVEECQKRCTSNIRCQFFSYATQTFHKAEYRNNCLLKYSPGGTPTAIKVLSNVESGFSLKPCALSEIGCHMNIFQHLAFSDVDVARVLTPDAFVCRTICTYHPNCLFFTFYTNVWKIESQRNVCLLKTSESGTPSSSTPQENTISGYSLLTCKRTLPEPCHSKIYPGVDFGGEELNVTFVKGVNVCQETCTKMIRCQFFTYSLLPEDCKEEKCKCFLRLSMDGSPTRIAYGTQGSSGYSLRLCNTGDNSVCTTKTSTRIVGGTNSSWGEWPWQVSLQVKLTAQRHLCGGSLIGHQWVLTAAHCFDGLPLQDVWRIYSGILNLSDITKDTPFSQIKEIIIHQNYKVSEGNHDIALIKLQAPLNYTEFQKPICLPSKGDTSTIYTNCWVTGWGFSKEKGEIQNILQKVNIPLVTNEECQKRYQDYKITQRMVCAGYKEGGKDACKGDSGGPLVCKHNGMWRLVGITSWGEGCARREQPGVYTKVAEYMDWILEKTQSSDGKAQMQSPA

Molecule	FREQUENCY
CSWWARCTHQDLC	1
CSLPIRCTHQDLC	1
CSFPYRCTHQDLC	12
CSYPWRCTHQDLC	1

System: not listed separately
Test: Plasma stability / fragment profiling Method #2 (MALDI-TOF, 95% plasma), human plasma
Format: in vitro ADME
Settings: running text and figure legends
Method: To obtain stability data more rapidly, peptides were also assessed in 95% plasma. Here, PBS was omitted, and a 1 mM peptide stock (in DMSO) was directly diluted into plasma (i.e. 2.5 uL stock into 47.5 uL plasma), giving a final concentration of 50 uM. 5 uL samples were taken at appropriate time points and frozen at −80 deg C. For analysis, the samples were defrosted, mixed with 15 uL of 1:1 acetonitrile:methanol, and centrifuged at 13 k for 5 min. 5 uL of the peptide-containing supernatant was aspirated and mixed with 30 mM ammonium bicarbonate in a 1:1 mixture of acetonitrile:H2O. 1 uL of this was then spotted on the MALDI plate and analysed as described above. As above, it should be noted that this is a qualitative assay serves to detect relative changes in plasma stability.
Ac-06-34-18(TMB)-NH2 Phe2 Tyr4 (referred to as wild type peptide) was subsequently subjected to human plasma, and analysed for fragments to appear over time. This was compared to the degradation profile observed in human plasma using the NMe-Arg5 derivative of 06-34-18 (FIGS. 18a and 18b). Fragmentation was determined according to Method #2.

Molecule	degradation / fragments in human plasma (in words)
CC(=O)N[C@H]1CSCc2cc3cc(c2)CSC[C@H](NC(=O)[C@H](CCCNC(=N)N)NC(=O)[C@H](Cc2ccc(O)cc2)NC(=O)[C@@H]2CCCN2C(=O)[C@H](Cc2ccccc2)NC(=O)[C@H](CO)NC1=O)C(=O)N[C@@H](CC(C)C)C(=O)N(CCc1c[nH]cn1)CC(=O)N[C@@H](CCC(N)=O)C(=O)N[C@@H](CC(=O)O)C(=O)N[C@@H](CC(C)C)C(=O)N[C@H](C(N)=O)CSC3 [Ac-(06-34-18) Phe2 Tyr4 N-His] (Ac-CSFPYRCL[Gly(N-CH2CH2-imidazol-4-yl)]QDLC-NH2; linker 1-7-13 via TBMB)	significantly enhanced stability in loop2

System: not listed separately
Test: Plasma stability profiling Method #1 (MALDI-TOF, 35% plasma), rat plasma
Format: in vitro ADME
Settings: Table 12; method #1
Method: A rapid plasma stability profiling assay was developed that employed mass spectrometric detection (MALDI-TOF, Voyager DE, Applied Biosystems) of the parent mass, until the time when the parent peptide mass was no longer observable. Specifically, 200 uM of peptide was incubated in the presence of 35% rat or human plasma (Sera labs, using citrate as anticoagulant) at 37 deg C., which was supplemented with 1×PBS (derived from a 10×PBS Stock, Sigma). At various time points (i.e. t=0, 3, 24 hrs, henceafter daily up to 10 days), 2 uL of sample was added to 18 uL of 30 mM ammonium bicarbonate in a 1:1 mixture of acetonitrile:H2O. Samples were frozen at −80 deg C. until the time of analysis. For mass spectrometric analysis that determines the approximate detection window of the peptide, the acetonitrile:H2O-diluted sample of a given time point was spotted directly (0.7 uL) onto the MALDI plate. Matrix (alpha-cyanocinnamic acid, Sigma, prepared as a saturated solution in 1:1 acetonitrile:water containing 0.1% trifluoroacetic acid) was layered over the sample (1 uL). At a similar laser intensity setting on the MALDI TOF, the time could then be determined until parent peptide was no longer detectable. It should be noted that this is a qualitative assay serves to detect relative changes in plasma stability.

Molecule	Observable in rat plasma, for days [days]
CC(=O)N[C@H]1CSCc2cc3cc(c2)CSC[C@H](NC(=O)[C@H](CCCNC(=N)N)NC(=O)[C@H](C)NC(=O)[C@@H]2CCCN2C(=O)[C@@H]2Cc4c([nH]c5ccccc45)CN2C(=O)[C@H](CO)NC1=O)C(=O)N[C@@H](CC(C)C)C(=O)N[C@@H](Cc1c[nH]cn1)C(=O)N[C@@H](CCC(N)=O)C(=O)N[C@@H](CC(=O)O)C(=O)N[C@@H](CC(C)C)C(=O)N[C@H](C(N)=O)CSC3 [Ac-(06-34-18) NorHar2] (Ac-CS[Tpi]PARCLHQDLC-NH2; linker 1-7-13 via TBMB)	2
CC(=O)N[C@H]1CSCc2cc3cc(c2)CSC[C@H](NC(=O)[C@H](CCCNC(=N)N)NC(=O)[C@H](C)NC(=O)[C@@H]2CCCN2C(=O)[C@H](Cc2ccc(-c4ccccc4)cc2)NC(=O)[C@H](CO)NC1=O)C(=O)N[C@@H](CC(C)C)C(=O)N[C@@H](Cc1c[nH]cn1)C(=O)N[C@@H](CCC(N)=O)C(=O)N[C@@H](CC(=O)O)C(=O)N[C@@H](CC(C)C)C(=O)N[C@H](C(N)=O)CSC3 [Ac-(06-34-18) 4,4,BPal2] (Ac-CS[Bip]PARCLHQDLC-NH2; linker 1-7-13 via TBMB)	2

Same assay, conditions: Table 13; method #1

Molecule	Observable in rat plasma, for days [days]
CC(=O)N[C@H]1CSCc2cc3cc(c2)CSC[C@H](NC(=O)[C@H](CCCNC(=N)N)NC(=O)[C@H](C)NC(=O)[C@@H]2CCN2C(=O)[C@H](Cc2c[nH]c4ccccc24)NC(=O)[C@H](CO)NC1=O)C(=O)N[C@@H](CC(C)C)C(=O)N[C@@H](Cc1c[nH]cn1)C(=O)N[C@@H](CCC(N)=O)C(=O)N[C@@H](CC(=O)O)C(=O)N[C@@H](CC(C)C)C(=O)N[C@H](C(N)=O)CSC3 [Ac-(06-34-18) Aze3] (Ac-CSW[Aze]ARCLHQDLC-NH2; linker 1-7-13 via TBMB)	2

Same assay, conditions: Table 14; method #1

Molecule	Observable in rat plasma, for days [days]
CCCC1(CCC)NC(=O)[C@@H](NC(C)=O)CSCc2cc3cc(c2)CSC[C@H](NC(=O)[C@H](CCCNC(=N)N)NC(=O)[C@H](C)NC(=O)[C@@H]2CCCN2C(=O)[C@H](Cc2c[nH]c4ccccc24)NC1=O)C(=O)N[C@@H](CC(C)C)C(=O)N[C@@H](Cc1c[nH]cn1)C(=O)N[C@@H](CCC(N)=O)C(=O)N[C@@H](CC(=O)O)C(=O)N[C@@H](CC(C)C)C(=O)N[C@H](C(N)=O)CSC3 [Ac-(06-34-18) Dpg1] (Ac-C[Dpg]WPARCLHQDLC-NH2; linker 1-7-13 via TBMB)	2
CC(=O)N[C@H]1CSCc2cc3cc(c2)CSC[C@H](NC(=O)[C@H](CCCNC(=N)N)NC(=O)CCNC(=O)[C@@H]2CCCN2C(=O)[C@H](Cc2c[nH]c4ccccc24)NC(=O)[C@H](CO)NC1=O)C(=O)N[C@@H](CC(C)C)C(=O)N[C@@H](Cc1c[nH]cn1)C(=O)N[C@@H](CCC(N)=O)C(=O)N[C@@H](CC(=O)O)C(=O)N[C@@H](CC(C)C)C(=O)N[C@H](C(N)=O)CSC3 [Ac-(06-34-18) β-Ala4] (Ac-CSWP[βAla]RCLHQDLC-NH2; linker 1-7-13 via TBMB)	10

Same assay, conditions: Table 21; method #1

Molecule	Observable in rat plasma, for days [days]
CC(=O)N[C@H]1CSCc2cc3cc(c2)CSC[C@H](NC(=O)[C@H](CCCNC(=N)N)NC(=O)[C@H](C)NC(=O)[C@@H]2CCCN2C(=O)[C@H](Cc2ccccc2)NC(=O)[C@H](CO)NC1=O)C(=O)N[C@@H](CC(C)C)C(=O)N[C@@H](Cc1c[nH]cn1)C(=O)N[C@@H](CCC(N)=O)C(=O)N[C@@H](CC(=O)O)C(=O)N[C@@H](CC(C)C)C(=O)N[C@H](C(N)=O)CSC3 [Ac-(06-34-18) FPAR] (Ac-CSFPARCLHQDLC-NH2; linker 1-7-13 via TBMB)	2

Target: T1, human plasma Kallikrein
Test: Functional enzyme inhibition assay with fluorogenic substrate Z-PheArg-AMC, human plasma Kallikrein
Format: biochemical
Settings: not given
Outline: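 Human plasma kallikrein at 26.5 pM was preincubated 15 minutes with test peptide in Tris/NaCl/MgCl2/CaCl2/BSA buffer pH7.4 at 25° C, then Z-PheArg-AMC added to 100 μM final in 4% DMSO.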

Molecule	reduction in potency/affinity compared to wildtype [fold]	affinity surpassing that of wildtype by a factor
CC(=O)N[C@H]1CSCc2cc3cc(c2)CSC[C@H](NC(=O)[C@H](CCCNC(=N)N)NC(=O)[C@H](C)NC(=O)[C@@H]2CCCN2C(=O)[C@H](Cc2ccccc2)NC(=O)[C@H](CO)NC1=O)C(=O)N[C@@H](CC(C)C)C(=O)N[C@@H](Cc1c[nH]cn1)C(=O)N[C@@H](CCC(N)=O)C(=O)N[C@@H](CC(=O)O)C(=O)N[C@@H](CC(C)C)C(=O)N[C@H](C(N)=O)CSC3 [Ac-(06-34-18) FPAR] (Ac-CSFPARCLHQDLC-NH2; linker 1-7-13 via TBMB)	40	–
CC(=O)N[C@H]1CSCc2cc3cc(c2)CSC[C@H](NC(=O)[C@H](CCCNC(=N)N)NC(=O)[C@H](C)NC(=O)[C@@H]2CCN2C(=O)[C@H](Cc2c[nH]c4ccccc24)NC(=O)[C@H](CO)NC1=O)C(=O)N[C@@H](CC(C)C)C(=O)N[C@@H](Cc1c[nH]cn1)C(=O)N[C@@H](CCC(N)=O)C(=O)N[C@@H](CC(=O)O)C(=O)N[C@@H](CC(C)C)C(=O)N[C@H](C(N)=O)CSC3 [Ac-(06-34-18) Aze3] (Ac-CSW[Aze]ARCLHQDLC-NH2; linker 1-7-13 via TBMB)	–	3

Same assay, conditions: Table 14; read-out: Ki (nM) (human kallikrein)

Molecule	Ki [nM]
CCCC1(CCC)NC(=O)[C@@H](NC(C)=O)CSCc2cc3cc(c2)CSC[C@H](NC(=O)[C@H](CCCNC(=N)N)NC(=O)[C@H](C)NC(=O)[C@@H]2CCCN2C(=O)[C@H](Cc2c[nH]c4ccccc24)NC1=O)C(=O)N[C@@H](CC(C)C)C(=O)N[C@@H](Cc1c[nH]cn1)C(=O)N[C@@H](CCC(N)=O)C(=O)N[C@@H](CC(=O)O)C(=O)N[C@@H](CC(C)C)C(=O)N[C@H](C(N)=O)CSC3 [Ac-(06-34-18) Dpg1] (Ac-C[Dpg]WPARCLHQDLC-NH2; linker 1-7-13 via TBMB)	1.09

Same assay, conditions: read-out: Ki / affinity to human Kallikrein

Molecule	Ki [nM]
CCCC1(CCC)NC(=O)[C@@H](NC(C)=O)CSCc2cc3cc(c2)CSC[C@H](NC(=O)[C@H](CCCNC(=N)N)NC(=O)[C@H](C)NC(=O)[C@@H]2CCCN2C(=O)[C@H](Cc2c[nH]c4ccccc24)NC1=O)C(=O)N[C@@H](CC(C)C)C(=O)N[C@@H](Cc1c[nH]cn1)C(=O)N[C@@H](CCC(N)=O)C(=O)N[C@@H](CC(=O)O)C(=O)N[C@@H](CC(C)C)C(=O)N[C@H](C(N)=O)CSC3 [Ac-(06-34-18) Dpg1] (Ac-C[Dpg]WPARCLHQDLC-NH2; linker 1-7-13 via TBMB)	1.1
